Tests used:
[1] = test system: primary human fibroblasts; assay: Transfection of primary human fibroblasts with pCMV β-gal DNA, in situ β-galactosidase staining; type: cell-based
Protocol: All cell lines were obtained from American Type Culture Collection (Rockville, Md.). Standard tissue culture methods were employed. […] Human fibroblasts were isolated from neonatal foreskin tissue and prepared as follows. Rinsed, fresh tissue was exposed to 25 units/ml dispase (Collaborative Research, Bedford, Mass.) overnight at 4° C., separated into epidermis and dermis, and the minced dermis was digested 10 min at 37° C. in 0.25% (v/v) trypsin, 1 mM EDTA. The reaction was stopped by a rinse and centrifugation in DMEM with 10% (v/v) FBS, in which the cells were also cultured. All cultures were incubated at 37° C., 5% CO2. Media for all cultures routinely included 100 units/ml penicillin and 100 μg/ml streptomycin.
For transfection of CHO-K1, NIH-3T3, and human fibroblast cells in 24-well plates, lipid and DNA (PCMV β-gal) were diluted separately into 25 μl aliquots of Opti-MEM I Reduced Serum Medium (GIBCO BRL; serum-free). […]
Cells were rinsed with PBS, fixed for 5 minutes in 2% (v/v) formaldehyde, 0.2% glutaraldehyde in PBS, rinsed twice with PBS, and stained 2 hr to overnight with 0.1% β-gal, 5 mM potassium ferrocyanide, 5 mM potassium ferrocyanide, 2 mM MgCl2 in PBS. […] Transfection efficiency is evaluated by counting or estimating the number of β-gal positive cells (blue-stained cells). […]

Jurkat cells = assay: Transfection of Jurkat cells with pCMVCAT DNA, CAT activity of cell lysates; type: cell-based
Protocol: (§1) All cell lines were obtained from American Type Culture Collection (Rockville, Md.). Standard tissue culture methods were employed. Chinese hamster ovary (CHO-K1) cells were cultured in EMEM (GIBCO BRL) containing 2 mM proline and 5% (v/v) fetal bovine serum (FBS). NIH 3T3 cells were cultured in Dulbecco's-modified Eagle's medium (DMEM) containing 10% (v/v) calf serum (CS). Jurkat cells were cultured in RPMI 1640 (GIBCO BRL) containing 10% (v/v) FBS. Human fibroblasts were isolated from neonatal foreskin tissue and prepared as follows. Rinsed, fresh tissue was exposed to 25 units/ml dispase (Collaborative Research, Bedford, Mass.) overnight at 4° C., separated into epidermis and dermis, and the minced dermis was digested 10 min at 37° C. in 0.25% (v/v) trypsin, 1 mM EDTA. The reaction was stopped by a rinse and centrifugation in DMEM with 10% (v/v) FBS, in which the cells were also cultured. All cultures were incubated at 37° C., 5% CO2. Media for all cultures routinely included 100 units/ml penicillin and 100 μg/ml streptomycin.
For transfection of Jurkat cells in suspension, lipid and DNA (pCMVCAT) were diluted separately into 500 μl aliquots of Opti-MEM I Reduced Serum Medium (GIBCO BRL; serum-free). These aliquots were gently mixed and incubated at room temperature for 15-45 minutes to form lipid-DNA complexes. […]

CHO-K1 cells = assay: Transfection of CHO-K1 cells with pCMV β-gal DNA, in situ β-galactosidase staining; type: cell-based, Chinese hamster; details: CHO-K1 cells (Table 3)
Protocol: as §1, with “streptomycin. […]” for “streptomycin.”
(§2) Cell lysates were assayed for β-galactosidase activity as described by Sanes et al. (1986) EMBO J. 5:3133. […] Transfection efficiency is evaluated by counting or estimating the number of β-gal positive cells (blue-stained cells). […]

NIH-3T3 cells = assay: Transfection of NIH-3T3 cells with pCMV β-gal DNA, in situ β-galactosidase staining; type: cell-based
Protocol: as §1, with “streptomycin. […]” for “streptomycin.”
as §2

Substance: N,N,N′,N′-tetramethyltetrapalmyl-sperminetetrammonium iodide [Compound 3]
- transfection efficiency relative to DOSPA ([1]; human fibroblasts, lower concentration of lipid required for optimal activity): comparable to DOSPA
- effectiveness for DNA transfection ([1]; primary human fibroblast cells (Table 1)): highly effective
- effectiveness for DNA transfection (Jurkat cells; Jurkat cells (Table 4)): highly effective
- transfection efficiency relative to DOSPA (Jurkat cells; Jurkat cells, lower concentration of lipid required for optimal activity): comparable to DOSPA
- effectiveness for DNA transfection (CHO-K1 cells): highly effective
- effectiveness for DNA transfection (NIH-3T3 cells; NIH-3T3 cells (Table 2)): highly effective
- transfection effectiveness relative to DOSPA (NIH-3T3 cells; NIH-3T3 cells, low amounts of DNA): approximately 10 fold
